In patent publication US20220306622A1, “SALT AND CRYSTAL FORM OF MTORC1/2 DUAL KINASE ACTIVITY INHIBITOR AND PREPARATION METHOD THEREFOR” (MEDSHINE DISCOVERY INC., priority 2019, published 2022):
“Also recorded” adds a separate entry of the source.

Assays:
[1] = Pharmacokinetic evaluation in plasma of mice (IV and PO); format: in vivo, BALB/C female mice; conditions: mouse
Procedure: The tested compound was mixed with 5% DMSO/95% 10% polyoxyethylene castor oil (Cremophor EL) followed by vortex and ultrasonic treatment to prepare 1 mg/mL approximate clear solution, which was filtered by microporous membrane before used. BALB/C female mice of 18 to 20 g were injected with the compound solution intravenously at a dose of 1 or 2 mg/kg. The tested compound was mixed with 1% Tween […], 90% aqueous solution followed by vortex and ultrasonic treatment to prepare 1 mg/mL approximate clear solution, which was filtered by microporous membrane before used. BALB/C female mice of 18 to 20 g were given the candidate compound solution orally at a dose of 2 or 10 mg/kg. Whole blood was collected for a certain time to prepare plasma. The medicament was analyzed for its concentration by LC-MS/MS, and the pharmacokinetic parameters were calculated by Phoenix winnonlin software (pharsight company).

mTOR kinase = molecular target: T1, mTOR kinase (Homo sapiens, UniProt P42345); assay: mTOR kinase inhibitory activity in vitro (discoverx ligand-bead competition binding, qPCR)
T1 construct: purchased discoverx; host or cells: HEK-293
Procedure: This experiment was tested on discoverx, and all materials and methods were from discoverx.
1. The labeled mTOR kinase was stably expressed in HEK-293 cells.
2. Streptavidin magnetic beads were treated with biotinylated small molecule ligands for 30 minutes at room temperature to produce an affinity resin for kinase analysis;
3. The ligand beads were blocked with excess biotin and washed with buffer (1% bovine serum albumin, 20 […] of dithiothreitol) to wash off unbound ligands and nonspecifically bound ligands;
5. The test compound was dissolved in dimethyl sulfoxide;
6. All compounds used for measurement were dissolved in DMSO and then diluted directly to a concentration of 0.9%;
7. The solution was placed on 384 well polypropylene plates with a volume of 0.02 mL of each well;
8. The plate was shaked at room temperature for 1 hour;
9. The plate was washed with buffer (1× PBS, 0.05% Tween 20);
10. Affinity beads were resuspended in buffer (1× PBS, 0.05% Tween 20, 0.5 μM nonbiotin-affinity ligands) and incubated at room temperature for 30 minutes;
11. The kinase in eluent was measured for its concentration by qPCR.

N87 cells = assay: Cell proliferation inhibitory activity (Cell-Titer-Glo), N87; format: cell-based
Procedure: (§1) Objective: the inhibitory activity of the compound to be tested was tested on cell proliferation.
(§2) Experimental principle: Luciferase in Cell-Titer-Glo reagent uses luciferin, oxygen and ATP as reaction substrates to produce oxidized luciferin and release energy in the form of light. Since ATP is required for luciferase reaction, the total amount of light produced by the reaction is directly proportional to the total amount of ATP in response to cell viability.
(§3) Cell lines: MCF-7 cell line (ATCC-CRL-22), HT-29 cell line (ATCC-HTB-38), OE21 (ECACC-96062201), NCI-N87 cell line (ATCC-CRL-5822)
(§4) Cell Titer-Glo® Luminescent cell viability test kit (Promega #G7573)
(§5) According to the schematic diagram of cell seed plate, 384 or 96 well plate was seeded based on 1000 cells per well with a density of 25 μL per well, and the edge well was supplemented with 25 μL PBS, instead of cells.
(§6) (1) The mother liquor of the compound was 10 mM, and the compound was diluted with DMSO to obtain its initial concentration of 4 mM. The compound was added into the mother liquor plate with 9 μL per well. […]
(§7) The cell plate was taken from the incubator and balanced at room temperature for 30 minutes. […] After 10 minutes, the plate reading was performed on PerkinElmer envision with setting the […] reading time of 0.2 seconds.

MCF-7 cells = assay: Cell proliferation inhibitory activity (Cell-Titer-Glo), MCF-7; format: cell-based, human
Procedure: as §1, §2, §3, §4, §5, §6, §7

[2] = system: subcutaneous xenografts of human breast cancer MCF-7 cell; assay: In vivo pharmacodynamic study, subcutaneous MCF-7 xenograft model; set-up: species or system nude BALB/c mice
Procedure: Experimental objective: to study the in vivo efficacy of the compound to be tested on subcutaneous xenografts of human breast cancer MCF-7 in nude BALB/c mice model.
Experimental animals: female BALB/C nude mice, 6-8 weeks old, weighing 18-22 g; Supplier: Shanghai Xipur Bikai Experimental Animal Co., Ltd.
Human breast cancer MCF-7 cells (ECACC, item number: 86012803) were cultured in monolayer in vitro. The culture conditions were EMEM (EBSS)+2 mM […]+1% Non Essential Amino Acids (NEAA) medium plus 10% fetal bovine serum, 100 U/mL penicillin and 100 μg/mL streptomycin, incubated in 5% CO2 incubator at 37° C. Cells were passaged through routine digestion using Trypsin EDTA twice a week. When the cell saturation was 80%-90% and the number reached the requirements, cells were collected, counted and inoculated. […]
The experimental index is used for investigating whether tumor growth is inhibited, delayed or cured. The tumor diameter was measured with a vernier caliper twice a week. […]
The antitumor effect of the compound was evaluated by TGI (%) or relative tumor proliferation rate T/C(%). […]
Relative tumor proliferation rate T/C (%): the calculation formula is as follows: T/C %=TRTV/CRTV (TRTV:RTV in treatment group; CRTV:RTV in negative control group). The relative tumor volume (RTV) is calculated according to the results of tumor measurement. […]

[3] = Solid stability test under long-term and accelerated conditions (XRPD); format: physicochemical
Procedure: Each sample was put into a double-layer LDPE Bag with each layer buckled and sealed respectively, and then the LDPE Bag was put into an aluminum foil bag and heat sealed. The samples were investigated for XRPD under the conditions of 25° C./60% RH (14 bags), 30° C./65% RH (10 bags) and 40° C./75% RH (10 bags). The test results were compared with the initial test results of 0 days.

[4] = Dynamic vapor sorption (DVS) hygroscopicity study; format: physicochemical; conditions: 25.6° C. and 80% RH
Procedure: Instrument model: SMS DVS Advantage dynamic vapour adsorbent device
Test conditions: taking the sample (10-15 mg) and putting it into a DVS sample tray for test.
Detailed DVS parameters are as follows:
Balance: dm/dt=0.01%/min (minimum: 10 min, maximum: 180 min)
RH(%) test step range: 0%-90%-0% RH (%)
The evaluation of moisture absorption is classed as follows:
DVS Advantage dynamic vapour adsorbent device

Compound: C[C@H]1COCCN1c1nc(N2CCOC3(CC3)C2)nc2nc(-c3cccc(C(N)=O)c3)ccc12 [Compound of formula (I)]
- bioavailability ([1]; female, BALB/C, plasma, 10 mg/kg, oral administration): ~100%
- pharmacokinetic properties compared with the reference compound (in words) [1]: the same or even better pharmacokinetic properties as the reference compound
- mTOR kinase inhibitory activity (in words) (mTOR kinase): significant or even unexpected mTOR kinase inhibitory activity, which is better than the current clinical compound AZD2014
- inhibitory activity on proliferation of N87 cells (in words) (N87 cells): obvious inhibitory activity
- inhibitory activity on proliferation of MCF-7 cells (in words) (MCF-7 cells): obvious inhibitory activity
- efficacy in MCF-7 Xenograft tumor model compared with AZD2014 (in words) ([2]; mouse, in vivo): equivalent to that of AZD2014; also recorded: comparable to AZD2014

Compound: CNC(=O)c1cccc(-c2ccc3c(N4CCOC[C@@H]4C)nc(N4CCOC[C@@H]4C)nc3n2)c1 [AZD2014, reference compound]
- RTV (day 27) ([2]; 15 mg/kg): 0.85 ± 0.26

Compound: C[C@H]1COCCN1c1nc(N2CCOC3(CC3)C2)nc2nc(-c3cccc(C(N)=O)c3)ccc12
- Crystal form (XRPD) ([3]; 25° C./60% RH, 3 months): Crystal form A
- Crystal form (XRPD) ([3]; 25° C./60% RH, 6 months): Crystal form A
- Crystal form (XRPD) ([3]; 40° C./75% RH, 3 months): Crystal form A
- Crystal form (XRPD) ([3]; 40° C./75% RH, 6 months): Crystal form A
- Crystal form (XRPD) ([3]; Day 0 (initial)): Crystal form A
- solid stability (in words) ([3]; high temperature, high humidity and strong light): good stability
- hygroscopicity (classification) [4]: without hygroscopicity
- ΔW % (hygroscopic weight gain) [4]: < 0.2%
